What was measured:
human TLR7 = human TLR7 (Homo sapiens (Human), UniProt Q9NYK1); test: HEK293-Blue-hTLR-7 cells assay; assay type: cell-based; conditions: HEK293-Blue-hTLR7 cells, R848 stimulation, 20 hrs, SEAP reporter; read-out: HEK/hTLR7 IC50
Text: (§1) A stable HEK293-Blue-hTLR-7 cell line was purchased from InvivoGen (Cat. #: hkb-htlr7, San Diego, Calif., USA). These cells were originally designed for studying the stimulation of human TLR7 by monitoring the activation of NF-κB. A SEAP (secreted embryonic alkaline phosphatase) reporter gene was placed under the control of the IFN-β minimal promoter fused to five NF-κB and AP-1-binding sites. The SEAP was induced by activating NF-κB and AP-1 via stimulating HEK-Blue hTLR7 cells with TLR7 ligands. Therefore the reporter expression was declined by TLR7 antagonist under the stimulation of a ligand, such as R848 (Resiquimod), for incubation of 20 hrs. The cell culture supernatant SEAP reporter activity was determined using QUANTI-Blue™ kit (Cat. #: rep-qb1, Invivogen, San Diego, Ca, USA) at a wavelength of 640 nm, a detection medium that turns purple or blue in the presence of alkaline phosphatase.
(§2) HEK293-Blue-hTLR7 cells were incubated at a density of 250,000˜450,000 cells/mL in a volume of 170 μL in a 96-well plate in Dulbecco's Modified Eagle's medium (DMEM) containing 4.5 g/L glucose, 50 U/mL penicillin, […], […], 2 mM L-glutamine, 10% (v/v) heat-inactivated fetal bovine serum with addition of 20 μL test compound in a serial dilution in the presence of final DMSO at 1% and 10 μL of 20 uM R848 in above DMEM, perform incubation under 37° C. in a CO2 incubator for 20 hrs. Then 20 μL of the supernatant from each well was incubated with 180 μL Quanti-blue substrate solution at 37° C. for 2 hrs and the absorbance was read at 620-655 nm using a spectrophotometer. The signaling pathway that TLR7 activation leads to downstream NF-κB activation has been widely accepted, and therefore similar reporter assay was modified for evaluating TLR7 antagonist.

human TLR8 = human TLR8 (Homo sapiens (Human), UniProt Q9NR97); test: HEK293-Blue-hTLR-8 cells assay; assay type: cell-based; conditions: HEK293-Blue-hTLR8 cells, R848 stimulation, 20 hrs, SEAP reporter; read-out: HEK/hTLR8 IC50
Text: as §1, with “HEK293-Blue-hTLR-8” for “HEK293-Blue-hTLR-7”, “hkb-htlr8,” for “hkb-htlr7,”, “TLR8” for “TLR7”, “hTLR8” for “hTLR7”, “R848,” for “R848 (Resiquimod),”, “rep-gb1,” for “rep-qb1,”
as §2, with “HEK293-Blue-hTLR8 cells were” for “HEK293-Blue-hTLR7 cells were”, “μL of 60 uM R848” for “μL of 20 uM R848”, “read at 620655 nm using” for “read at 620-655 nm using”, “pathway that TLR8 activation leads” for “pathway that TLR7 activation leads”, “for evaluating TLR8 antagonist.” for “for evaluating TLR7 antagonist.”

Sequence of human TLR7 (Q9NYK1 27-1049): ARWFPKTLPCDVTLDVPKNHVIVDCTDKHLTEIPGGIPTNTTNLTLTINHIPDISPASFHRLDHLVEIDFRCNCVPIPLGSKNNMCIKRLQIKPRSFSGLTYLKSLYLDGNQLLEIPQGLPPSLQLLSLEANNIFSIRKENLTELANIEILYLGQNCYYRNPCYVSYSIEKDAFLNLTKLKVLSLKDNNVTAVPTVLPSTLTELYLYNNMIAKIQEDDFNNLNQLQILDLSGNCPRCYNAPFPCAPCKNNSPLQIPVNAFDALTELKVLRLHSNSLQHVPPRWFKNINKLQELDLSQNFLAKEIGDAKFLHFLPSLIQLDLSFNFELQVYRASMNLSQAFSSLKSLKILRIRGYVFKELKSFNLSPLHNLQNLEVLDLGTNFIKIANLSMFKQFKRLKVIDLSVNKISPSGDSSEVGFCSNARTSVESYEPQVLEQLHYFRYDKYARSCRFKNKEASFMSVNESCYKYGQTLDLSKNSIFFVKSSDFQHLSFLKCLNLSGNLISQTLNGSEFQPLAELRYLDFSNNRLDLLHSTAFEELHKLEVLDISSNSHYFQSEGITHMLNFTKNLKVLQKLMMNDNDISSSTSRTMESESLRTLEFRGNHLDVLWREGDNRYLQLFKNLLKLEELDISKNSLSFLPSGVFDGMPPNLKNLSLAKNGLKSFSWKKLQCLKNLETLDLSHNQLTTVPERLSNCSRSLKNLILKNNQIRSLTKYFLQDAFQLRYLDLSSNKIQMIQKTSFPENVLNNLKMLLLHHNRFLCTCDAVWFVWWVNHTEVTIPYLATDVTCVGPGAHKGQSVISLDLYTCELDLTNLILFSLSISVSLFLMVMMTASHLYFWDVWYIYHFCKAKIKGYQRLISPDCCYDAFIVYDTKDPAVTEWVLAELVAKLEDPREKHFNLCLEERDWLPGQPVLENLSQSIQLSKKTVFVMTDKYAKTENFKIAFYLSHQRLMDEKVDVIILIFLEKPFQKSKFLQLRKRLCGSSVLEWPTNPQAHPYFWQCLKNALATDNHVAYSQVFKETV
Sequence of human TLR8 (Q9NR97 27-1041): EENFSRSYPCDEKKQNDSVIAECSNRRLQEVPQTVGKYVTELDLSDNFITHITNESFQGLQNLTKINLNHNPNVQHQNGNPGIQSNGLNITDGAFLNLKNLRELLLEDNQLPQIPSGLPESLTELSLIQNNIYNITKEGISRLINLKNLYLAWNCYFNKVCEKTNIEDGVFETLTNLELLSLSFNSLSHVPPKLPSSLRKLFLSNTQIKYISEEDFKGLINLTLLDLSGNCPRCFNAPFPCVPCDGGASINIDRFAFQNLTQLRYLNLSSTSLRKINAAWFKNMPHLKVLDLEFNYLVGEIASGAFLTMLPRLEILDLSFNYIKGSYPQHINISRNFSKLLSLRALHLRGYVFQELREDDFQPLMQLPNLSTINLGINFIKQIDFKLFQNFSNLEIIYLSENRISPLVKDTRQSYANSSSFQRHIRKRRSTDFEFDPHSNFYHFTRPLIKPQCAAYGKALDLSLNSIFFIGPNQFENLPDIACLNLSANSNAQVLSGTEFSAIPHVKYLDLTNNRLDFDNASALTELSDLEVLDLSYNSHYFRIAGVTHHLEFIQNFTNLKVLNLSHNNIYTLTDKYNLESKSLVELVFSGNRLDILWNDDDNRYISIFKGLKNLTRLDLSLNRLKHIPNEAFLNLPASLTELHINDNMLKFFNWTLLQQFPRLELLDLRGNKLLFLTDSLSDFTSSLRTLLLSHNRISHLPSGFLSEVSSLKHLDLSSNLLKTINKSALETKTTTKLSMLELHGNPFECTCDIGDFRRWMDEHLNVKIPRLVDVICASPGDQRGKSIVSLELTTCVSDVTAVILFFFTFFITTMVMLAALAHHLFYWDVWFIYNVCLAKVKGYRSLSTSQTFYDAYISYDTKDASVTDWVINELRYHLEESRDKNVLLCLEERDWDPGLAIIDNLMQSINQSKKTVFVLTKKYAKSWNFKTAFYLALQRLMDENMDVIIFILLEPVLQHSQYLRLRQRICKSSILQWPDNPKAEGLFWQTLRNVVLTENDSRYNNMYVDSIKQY

Compound	IC50 (human TLR7) [nM]	IC50 (human TLR8) [nM]
Cc1cc(-c2ccc(N3CCC(N4CCNCC4)CC3)nc2C(C)C)cn2ccnc12 [Example 2, 6-[2-isopropyl-6-(4-piperazin-1-yl-1-piperidyl)-3-pyridyl]-8-methyl-imidazo[1,2-a]pyridine]	1.6	1.3
Cc1cn2cc(-c3ccc(N4CCC(N5CCNCC5)CC4)nc3C(C)C)cc(C)c2n1 [Example 3, 6-[2-isopropyl-6-(4-piperazin-1-yl-1-piperidyl)-3-pyridyl]-2,8-dimethyl-imidazo[1,2-a]pyridine]	5.8	1.2
Cc1cn2cc(-c3ccc(N4CCC(N)CC4)nc3C(C)C)cc(C)c2n1 [Example 4, 1-[5-(2,8-dimethylimidazo[1,2-a]pyridin-6-yl)-6-isopropyl-2-pyridyl]piperidin-4-amine]	8.9	2.9
Cc1cn2cc(-c3ccc(N4CCNC[C@H]4CO)nc3C(C)C)cc(C)c2n1 [Example 5, [(2S)-1-[5-(2,8-dimethylimidazo[1,2-a]pyridin-6-yl)-6-isopropyl-2-pyridyl]piperazin-2-yl]methanol]	21.4	30.4
Cc1c(-c2ccc(N3CCC(N4CCNCC4)CC3)nc2C(C)C)cn2ccnc2c1C [Example 7, 6-[2-isopropyl-6-(4-piperazin-1-yl-1-piperidyl)-3-pyridyl]-7,8-dimethyl-imidazo[1,2-a]pyridine]	22.7	8.6
Cc1cn2cc(-c3ccc(N4CCN5CCNCC5C4)nc3C(C)C)cc(C)c2n1 (stereo not shown) [Example 8, 2-[5-(2,8-dimethylimidazo[1,2-a]pyridin-6-yl)-6-isopropyl-2-pyridyl]-1,3,4,6,7,8,9,9a-octahydropyrazino[1,2-a]pyrazine]	6.7	2.3
Cc1cc(-c2cc(C)c3nccn3c2)cnc1N1CCC(N2CCN(C)CC2)CC1 [Example 9, 8-methyl-6-[5-methyl-6-[4-(4-methylpiperazin-1-yl)-1-piperidyl]-3-pyridyl]imidazo[1,2-a]pyridine]	13.2	10.7
Cc1cc(-c2ccc(N3CCC(N4CCNCC4)CC3)nc2C(F)F)cn2ccnc12 [Example 10, 6-[2-(difluoromethyl)-6-(4-piperazin-1-yl-1-piperidyl)-3-pyridyl]-8-methyl-imidazo[1,2-a]pyridine]	1.9	2.8
Cc1cn2cc(-c3ccc(N4CCC(N5CCNCC5)CC4)nc3C(F)F)cc(C)c2n1 [Example 11, 6-[2-(difluoromethyl)-6-(4-piperazin-1-yl-1-piperidyl)-3-pyridyl]-2,8-dimethyl-imidazo[1,2-a]pyridine]	16.3	16.8
Cc1cn2cc(-c3ccc(N4CCC(N5CC(C)(N)C5)CC4)nc3C(F)F)cc(C)c2n1 [Example 12, 1-[1-[6-(difluoromethyl)-5-(2,8-dimethylimidazo[1,2-a]pyridin-6-yl)-2-pyridyl]-4-piperidyl]-3-methyl-azetidin-3-amine]	16.3	1.1
CCc1nc(N2CCC(N3CC4(CNCCO4)C3)CC2)ccc1-c1cc(C)c2nccn2c1 [Example 14, 2-[1-[6-ethyl-5-(8-methylimidazo[1,2-a]pyridin-6-yl)-2-pyridyl]-4-piperidyl]-5-oxa-2,8-diazaspiro[3.5]nonane]	3.9	0.4
CCc1nc(N2CCC(N3C[C@@H](N)[C@H](OC)C3)CC2)ccc1-c1cc(C)c2nccn2c1 [Example 15, (3R,4R)-1-[1-[6-ethyl-5-(8-methylimidazo[1,2-a]pyridin-6-yl)-2-pyridyl]-4-piperidyl]-4-methoxy-pyrrolidin-3-amine]	2.7	0.3
CCc1nc(N2CCC(N3C[C@@H](N)[C@H](OC)C3)CC2)ccc1-c1cc(C)c2nc(C)cn2c1 [Example 17, (3R,4R)-1-[1-[5-(2,8-dimethylimidazo[1,2-a]pyridin-6-yl)-6-ethyl-2-pyridyl]-4-piperidyl]-4-methoxy-pyrrolidin-3-amine]	17.3	1
CCc1nc(N2CCC(C)(N)CC2)ccc1-c1cc(C)c2nc(C)cn2c1 [Example 20, 1-[5-(2,8-dimethylimidazo[1,2-a]pyridin-6-yl)-6-ethyl-2-pyridyl]-4-methyl-piperidin-4-amine]	35.8	41.8
CCc1nc(N2CCC(N3CCNCC3)CC2)ccc1-c1cc(C)c2nc(C)cn2c1 [Example 21, 6-[2-ethyl-6-(4-piperazin-1-yl-1-piperidyl)-3-pyridyl]-2,8-dimethyl-imidazo[1,2-a]pyridine]	5.9	3.6
CCc1cc(-c2cc(C)c3nccn3c2)cnc1N1CCC2(CCNCC2)CC1 [Example 22, 3-[3-ethyl-5-(8-methylimidazo[1,2-a]pyridin-6-yl)-2-pyridyl]-3,9-diazaspiro[5.5]undecane]	3.3	40
COc1nc(N2CCC(N3CCNCC3)CC2)ccc1-c1cc(C)c2nccn2c1 [Example 25, 6-[2-methoxy-6-(4-piperazin-1-yl-1-piperidyl)-3-pyridyl]-8-methyl-imidazo[1,2-a]pyridine]	6.9	11.2
